The results in this text go back to article PMC10290117, “Molecular mechanism of phosphopeptide neoantigen immunogenicity” (Nature Communications, 2023).

Square brackets hold non-standard residues; d marks the D form. Ends that are not written are not given here. Peptide text beside a SMILES is read from it. Abu(4-PO3H2) = N[C@@H](CCP(=O)(O)O)C(=O)O; pS = N[C@@H](COP(=O)(O)O)C(=O)O

The test system of one experiment is TCR27-AKD10R3 cells. Description: X-scan (peptide scan), EGFP reporter effector cells. The format is cell-based, murine. Conditions: Fig. 1c source data, HLA B*07, T2 cells pulsed with 25 μg peptide per 1 × 10^6 cells, 2 h, 37 °C, effector cells 2:1 overnight, mean value of triplicate.
On to “TPRsPSHSM [single-residue substitution of pMLL747–755, Pos 1]”, for which the “Percentage GFP positive from TCR+ cells” value was 1.28%.

With “VPRsPSHSM [single-residue substitution of pMLL747–755, Pos 1]”, the “Percentage GFP positive from TCR+ cells” value stood at 1.39%.

“WPRsPSHSM [single-residue substitution of pMLL747–755, Pos 1]”: the “Percentage GFP positive from TCR+ cells” value turned out to be 1.18%.

On to “YPRsPSHSM [single-residue substitution of pMLL747–755, Pos 1]”, for which the “Percentage GFP positive from TCR+ cells” value turned out to be 1.32%.

The target in the next experiment is HLA-B*0702 (Homo sapiens, UniProt P01889). Put plainly: Alpha assay, peptide binding to HLA-B*0702. Conditions: Alpha assay (luminescent oxygen channeling), W6/32 antibody and biotinylated recombinant HLA class I; non-linear fit. As to the method: Peptides were dissolved in dimethyl sulfoxide (DMSO) at concentrations of 2–20 mg/mL, aliquoted and stored at −80 °C. Peptide-pulsing experiments were performed by pre-incubating T2 cells with 25 μg peptide per 1 × 10^6 cells in PBS for 2 h at 37 °C and 5% CO2, washed three times to remove unbound peptides and used for further downstream analysis. Peptide-pulsed T2 cells were incubated with effector cells in a 2:1 ratio overnight in SF-IMDM at 37 °C and 10% CO2, washed twice and stained with anti-mouse TCR-® chain clone H57-597 (BD Pharmingen #560656, 1:500) for 30 min at RT. Cells were washed twice before FACS-analysis using a BD FACS Canto II with System software v2.0. Data analysis was performed using FlowJo V10 Software. Binding affinity between each peptide and HLA-B*0702 was determined using an Alpha assay. It is a homogenous, proximity-based assay for detection of peptides binding to HLA class I molecules using a conformation-dependent anti-HLA class I antibody, W6/32, as one tag and a biotinylated recombinant HLA class I molecule as the other tag, and a proximity-based signal was generated through the luminescent oxygen channeling immunoassay technology (PerkinElmer) as described.
What is called Kd is the constant that tells how readily two partners part at equilibrium. Take `CSCC[C@H](NC(=O)[C@H](CO)NC(=O)[C@H](Cc1c[nH]cn1)NC(=O)[C@H](CO)NC(=O)[C@@H]1CCCN1C(=O)[C@H](CCP(=O)(O)O)NC(=O)[C@H](CCCNC(=N)N)NC(=O)[C@@H]1CCCN1C(=O)[C@@H](N)CCC(=O)O)C(=O)O` [E7P-MLL747–755] (H-EPR[Abu(4-PO3H2)]PSHSM-OH): the equilibrium dissociation constant (Kd) worked out at 33.9 nM.

For `CSCC[C@H](NC(=O)[C@H](CO)NC(=O)[C@H](Cc1c[nH]cn1)NC(=O)[C@H](CO)NC(=O)[C@@H]1CCCN1C(=O)[C@H](COS(=O)(=O)O)NC(=O)[C@H](CCCNC(=N)N)NC(=O)[C@@H]1CCCN1C(=O)[C@@H](N)CCC(=O)O)C(=O)O` [OSE-MLL747–755], the Kd was determined as 26.2 nM.

Regarding `CC(C)C[C@H](NC(=O)[C@H](CCC(N)=O)NC(=O)[C@H](Cc1c[nH]cn1)NC(=O)[C@H](C)NC(=O)[C@@H]1CCCN1C(=O)[C@H](COP(=O)(O)O)NC(=O)[C@H](C)NC(=O)[C@@H]1CCCN1C(=O)[C@@H](N)CC(C)C)C(=O)O` [pDOT1L998–1006] (H-LPA[pS]PAHQL-OH), the dissociation constant (Kd) was determined as 309 nM.

`CSCC[C@H](NC(=O)[C@H](CO)NC(=O)[C@H](Cc1c[nH]cn1)NC(=O)[C@H](CO)NC(=O)[C@@H]1CCCN1C(=O)[C@H](COP(=O)(O)O)NC(=O)[C@H](CCCNC(=N)N)NC(=O)[C@@H]1CCCN1C(=O)[C@@H](N)CCC(=O)O)C(=O)O` [pMLL747–755] (H-EPR[pS]PSHSM-OH): the equilibrium dissociation constant (Kd) came out at 56.7 nM.

For the compound EPRSPSHSM [MLL747–755], the Kd is 27 nM.

LPASPAHQL [DOT1L998–1006]: the equilibrium dissociation constant (Kd) came out at 54.3 nM.
